Structures can show the parent of a compound that is named as a salt.

The Ki is the equilibrium dissociation constant of an inhibitor or competing ligand from its target.

One assay concerns the target Lysine-specific histone demethylase 1A (Homo sapiens, UniProt O60341). Briefly: GST-LSD1 Enzymatic Assays. To be noted: pH 7.5.
Experimental: The reaction mixture contained 50 mM HEPES (pH 7.5), 0.1 mM 4-aminoantipyrine, 1 mM 3,5-dichloro-2-hydroxybenzenesulfonic acid, 0.04 mg/mL horseradish peroxidase, and appropriate concentration of buffered substrate (dimethyl-Lys-4- H3-21, ARTKme2[sequence]).
`NNCCc1ccc(NC(=O)/C=C/c2ccccc2)cc1` [(2E)-N-[4-(2-Hydrazinylethyl)phenyl]-3-phenylprop-2-enamide sulfate salt (13)] yielded a Ki of 100 nM. Still for that read-out and setting: under `CN(C(=O)CCCc1ccccc1)c1ccc(CCNN)cc1` [N-[4-(2-Hydrazinylethyl)phenyl]-N-methyl-4-phenylbutanamide oxalate salt (12l)] stands 2000 nM; under `NNCCCc1ccccc1` [(3-Phenylpropyl)hydrazine dihydrochloride salt (9c)], 5000 nM. On the same count and under the same terms, under `NNCCCOc1ccccc1` [(3-Phenoxypropyl)hydrazine dihydrochloride salt (10b)] stands 12000 nM; under `COc1ccc(CCCC(=O)Nc2ccc(CCNN)cc2)cc1` [N-[4-(2-Hydrazinylethyl)phenyl]-4-(4-methoxyphenyl)butanamide sulfate salt (12h)], 207 nM. On the same count and under the same terms, as for `NNCCc1ccc(N(Cc2ccccc2)C(=O)CCCc2ccccc2)cc1` [N-Benzyl-N-[4-(2-hydrazinylethyl)phenyl]-4-phenylbutanamide oxalate salt (12m)], the figure is 1600 nM.

In turn, `NNCCc1ccc(NC(=O)CCc2ccccc2)cc1` [N-[4-(2-Hydrazinylethyl)phenyl]-3-phenylpropanamide sulfate salt (12c)] came in with a Ki of 260 nM. With `CS(=O)(=O)Oc1ccccc1CCC(=O)Nc1ccc(CCNN)cc1` [2-(3-{[4-(2-Hydrazinylethyl)phenyl]amino}-3-oxopropyl)phenyl methanesulfonate oxalate salt (12j)], the Ki was 204 nM. The same measure, in the same setting: under `NNCCc1ccc(NC(=O)CCCCc2ccccc2)cc1` [N-[4-(2-Hydrazinylethyl)phenyl]-5-phenylpentanamide oxalate salt (12e)] stands 260 nM; under `NNCCc1ccc(NC(=O)CCc2c[nH]c3ccccc23)cc1` [N-[4-(2-Hydrazinylethyl)phenyl]-3-(1H-indol-3-yl)propanamide sulfate salt (15a)], 210 nM; under `NNCCc1ccc(NC(=O)c2ccccc2)cc1` [N-[4-(2-Hydrazinylethyl)phenyl]benzamide dihydrochloride salt (12a)], 280 nM. The same measure, in the same setting: under `NNCCCCc1ccccc1` [(4-Phenylbutyl)hydrazine dihydrochloride salt (9h)] stands 22000 nM; under `NNCCCc1ccc(OCc2ccccc2)cc1` [{3-[4-(Benxyloxy)phenyl]propyl}hydrazine dihydrochloride salt (14)], 900 nM.

Regarding `NNCCOc1ccccc1` [(2-Phenoxyethyl)hydrazine dihydrochloride salt (10a)], the Ki worked out at 44000 nM. The same measure, in the same setting: as for `NNCCc1ccc(NC(=O)CCCc2ccc(Cl)cc2)cc1` [4-(4-Chlorophenyl)-N-[4-(2-hydrazinylethyl)phenyl]butanamide sulfate salt (12f)], the figure is 156 nM; as for `NNCCc1ccc(NC(=O)Cc2ccccc2)cc1` [N-[4-(2-Hydrazinylethyl)phenyl]-2-phenylacetamide dihydrochloride salt (12b)], 370 nM; as for `CS(=O)(=O)Oc1cccc(CCC(=O)Nc2ccc(CCNN)cc2)c1` [3-(3-{[4-(2-Hydrazinylethyl)phenyl]amino}-3-oxopropyl)phenyl methanesulfonate oxalate salt (12k)], 223 nM. For the molecule `NNCCc1ccc(NC(=O)CCCc2ccc([N+](=O)[O-])cc2)cc1` [N-[4-(2-Hydrazinylethyl)phenyl]-4-(4-nitrophenyl)butanamide sulfate salt (12i)], the Ki is 282 nM.

With `COc1ccc(CCCNN)cc1` [[3-(4-Methoxyphenyl)propyl]hydrazine dihydrochloride salt (9e)], the Ki came to 8000 nM.

A further assay addresses T1, Amine oxidase [flavin-containing] A (Homo sapiens, UniProt P21397).
T1 sequence (P21397 whole entry): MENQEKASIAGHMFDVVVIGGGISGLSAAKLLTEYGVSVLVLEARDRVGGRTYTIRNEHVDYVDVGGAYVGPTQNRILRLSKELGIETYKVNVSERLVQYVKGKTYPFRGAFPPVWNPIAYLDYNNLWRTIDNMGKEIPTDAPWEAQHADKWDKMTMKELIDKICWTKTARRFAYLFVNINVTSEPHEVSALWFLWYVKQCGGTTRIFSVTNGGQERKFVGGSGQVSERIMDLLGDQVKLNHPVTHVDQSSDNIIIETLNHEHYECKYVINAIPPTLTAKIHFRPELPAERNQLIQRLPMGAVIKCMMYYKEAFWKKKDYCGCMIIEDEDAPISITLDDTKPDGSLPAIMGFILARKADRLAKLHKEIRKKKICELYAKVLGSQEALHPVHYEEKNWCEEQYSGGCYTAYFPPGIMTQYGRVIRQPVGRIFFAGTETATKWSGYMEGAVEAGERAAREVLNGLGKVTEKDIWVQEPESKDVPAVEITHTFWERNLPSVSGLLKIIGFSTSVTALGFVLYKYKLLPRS
The assay can be described thus: MAO-A/B Activity and Inhibition Assay. To be noted: pH 7.5.
Experimental: (§1) The reaction mixtures contained 50 mM HEPES (pH 7.5), 0.1 mM 4-aminoantipyrine, 1 mM 3,5-dichloro-2-hydroxybenzenesulfonic acid, 0.04 mg/mL horseradish peroxidase, and appropriate concentration of buffered substrate (tyramine).
For the molecule `NNCCc1ccc(NC(=O)CCCc2ccccc2)cc1` [N-[4-(2-Hydrazinylethyl)phenyl]-4-phenylbutanamide dihydrochloride salt (12d)], the Ki was found to be 2600 nM.

A further assay addresses T2, Amine oxidase [flavin-containing] B (Homo sapiens, UniProt P27338).
T2 sequence (P27338 whole entry): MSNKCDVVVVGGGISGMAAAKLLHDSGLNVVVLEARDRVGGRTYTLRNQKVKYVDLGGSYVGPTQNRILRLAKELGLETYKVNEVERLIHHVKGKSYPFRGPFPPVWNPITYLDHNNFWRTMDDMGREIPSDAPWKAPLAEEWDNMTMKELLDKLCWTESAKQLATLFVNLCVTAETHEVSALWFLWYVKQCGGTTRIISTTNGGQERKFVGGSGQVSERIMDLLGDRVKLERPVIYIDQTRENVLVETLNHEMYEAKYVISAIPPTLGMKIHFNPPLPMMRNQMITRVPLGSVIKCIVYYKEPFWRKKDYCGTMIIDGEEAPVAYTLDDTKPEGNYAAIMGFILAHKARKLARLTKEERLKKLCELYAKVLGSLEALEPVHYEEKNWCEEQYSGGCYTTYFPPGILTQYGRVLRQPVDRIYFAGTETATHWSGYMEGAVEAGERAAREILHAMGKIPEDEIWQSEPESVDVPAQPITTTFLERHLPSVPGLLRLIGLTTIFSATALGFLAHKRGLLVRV
Briefly: MAO-A/B Activity and Inhibition Assay. To be noted: pH 7.5.
Experimental: as §1
Consider `NNCCc1ccc(NC(=O)CCCc2ccccc2)cc1` [N-[4-(2-Hydrazinylethyl)phenyl]-4-phenylbutanamide dihydrochloride salt (12d)], for which the Ki was determined as 6500 nM.

Values taken from BindingDB's records for doi:10.1021/cb500018s (Johns Hopkins University, 2014).
